Each compound was assayed against Muscarinic acetylcholine receptor M4 (Homo sapiens) (UniProt P08173) (assay: human M4 positive allosteric modulators, dose response, cell-based, calcium flux, Millipore GPCR Profiler (AID 449765)). Settings: M4-expressing cells, calcium flux fluorescence;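 active = compounds whose concentration-response curve, boosting the calcium signal from a low acetylcholine dose at M4, fit with R squared above 0.8; inactive = the rest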.
Chain of Muscarinic acetylcholine receptor M4 (Homo sapiens) (P08173 whole entry, looked up): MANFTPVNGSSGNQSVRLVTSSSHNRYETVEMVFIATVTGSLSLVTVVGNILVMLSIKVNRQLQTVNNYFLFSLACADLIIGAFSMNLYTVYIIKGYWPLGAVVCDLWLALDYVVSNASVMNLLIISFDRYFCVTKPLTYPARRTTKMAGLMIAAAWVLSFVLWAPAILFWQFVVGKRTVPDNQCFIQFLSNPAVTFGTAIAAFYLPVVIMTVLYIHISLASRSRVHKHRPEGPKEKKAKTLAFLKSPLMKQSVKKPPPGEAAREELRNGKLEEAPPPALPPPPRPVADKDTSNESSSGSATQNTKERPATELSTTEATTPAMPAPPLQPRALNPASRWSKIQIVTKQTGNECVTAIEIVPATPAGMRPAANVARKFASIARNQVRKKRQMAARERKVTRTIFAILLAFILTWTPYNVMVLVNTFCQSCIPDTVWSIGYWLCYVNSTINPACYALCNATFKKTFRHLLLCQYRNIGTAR

EC50, active:
COc1ccc(CNC(=O)c2sc3nc(OCc4ccncc4)cc(C)c3c2N)cc1 100 nM, Cc1cc(OCCN2CCOCC2)nc2sc(C(=O)NC(C)(C)C)c(N)c12 192 nM, Cc1cc(OCc2ccncc2)nc2sc(C(=O)NCc3cc(F)ccc3F)c(N)c12 183 nM, Cc1cc(OCc2ccncc2)nc2sc(C(=O)NCc3cccc(F)c3F)c(N)c12 95.3 nM
